Source: US10745384B2, “Indazole derivatives as αv integrin antagonists” (BRISTOL-MYERS SQUIBB COMPANY, priority 2016, dated 2020)
pIC50: −log10 of the molar value. Counter-ions that a name gives are not always drawn.

biological target: T1, human αVβ6 (Homo sapiens, UniProt P06756+P18564); assay: human αVβ6 HTRF binding assay; conditions: recombinant human αVβ6 integrin, FITC-conjugated fibronectin
T1 construct: purchased R & D systems 3817-AV
Outline: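 HTRF binding in 20 mM Tris pH 7.4 with 1 mM MgCl2, 1 mM MnCl2, 0.01% Tween 20 and 0.01% BSA. For αVβ6, biotinylated integrin (1.25 nM) and FITC-fibronectin (5 nM) were incubated 1 h at RT, then streptavidin-terbium (0.625 nM) was added overnight in the dark. An SPA-based fibronectin binding format was an alternative.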

T1 sequence (P06756 31-992 limits assumed): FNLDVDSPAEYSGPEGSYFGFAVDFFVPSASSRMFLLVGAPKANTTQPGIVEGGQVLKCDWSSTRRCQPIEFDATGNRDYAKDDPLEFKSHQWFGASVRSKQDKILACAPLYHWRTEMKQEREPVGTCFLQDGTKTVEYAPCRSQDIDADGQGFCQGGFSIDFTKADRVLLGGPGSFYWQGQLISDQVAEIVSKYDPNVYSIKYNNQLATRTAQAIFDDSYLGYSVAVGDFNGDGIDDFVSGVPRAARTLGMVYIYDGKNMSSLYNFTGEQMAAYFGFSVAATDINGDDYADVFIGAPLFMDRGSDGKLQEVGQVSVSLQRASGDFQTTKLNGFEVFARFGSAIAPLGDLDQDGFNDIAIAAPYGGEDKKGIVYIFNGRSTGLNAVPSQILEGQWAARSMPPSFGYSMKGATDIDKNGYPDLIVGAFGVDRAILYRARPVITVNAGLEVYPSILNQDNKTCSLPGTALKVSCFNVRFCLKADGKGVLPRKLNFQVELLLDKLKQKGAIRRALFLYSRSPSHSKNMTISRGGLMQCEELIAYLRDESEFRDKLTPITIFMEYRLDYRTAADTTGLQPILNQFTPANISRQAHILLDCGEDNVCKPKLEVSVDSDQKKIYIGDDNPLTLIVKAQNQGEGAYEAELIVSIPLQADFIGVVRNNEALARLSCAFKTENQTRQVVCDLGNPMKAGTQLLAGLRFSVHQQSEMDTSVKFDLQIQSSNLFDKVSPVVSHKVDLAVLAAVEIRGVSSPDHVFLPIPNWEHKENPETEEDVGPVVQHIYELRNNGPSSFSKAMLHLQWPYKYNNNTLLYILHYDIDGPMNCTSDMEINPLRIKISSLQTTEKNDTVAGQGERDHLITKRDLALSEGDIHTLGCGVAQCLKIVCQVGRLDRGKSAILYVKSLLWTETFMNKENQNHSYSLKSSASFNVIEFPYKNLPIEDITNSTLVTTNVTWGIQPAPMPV
T1 sequence (P18564 22-707 limits assumed): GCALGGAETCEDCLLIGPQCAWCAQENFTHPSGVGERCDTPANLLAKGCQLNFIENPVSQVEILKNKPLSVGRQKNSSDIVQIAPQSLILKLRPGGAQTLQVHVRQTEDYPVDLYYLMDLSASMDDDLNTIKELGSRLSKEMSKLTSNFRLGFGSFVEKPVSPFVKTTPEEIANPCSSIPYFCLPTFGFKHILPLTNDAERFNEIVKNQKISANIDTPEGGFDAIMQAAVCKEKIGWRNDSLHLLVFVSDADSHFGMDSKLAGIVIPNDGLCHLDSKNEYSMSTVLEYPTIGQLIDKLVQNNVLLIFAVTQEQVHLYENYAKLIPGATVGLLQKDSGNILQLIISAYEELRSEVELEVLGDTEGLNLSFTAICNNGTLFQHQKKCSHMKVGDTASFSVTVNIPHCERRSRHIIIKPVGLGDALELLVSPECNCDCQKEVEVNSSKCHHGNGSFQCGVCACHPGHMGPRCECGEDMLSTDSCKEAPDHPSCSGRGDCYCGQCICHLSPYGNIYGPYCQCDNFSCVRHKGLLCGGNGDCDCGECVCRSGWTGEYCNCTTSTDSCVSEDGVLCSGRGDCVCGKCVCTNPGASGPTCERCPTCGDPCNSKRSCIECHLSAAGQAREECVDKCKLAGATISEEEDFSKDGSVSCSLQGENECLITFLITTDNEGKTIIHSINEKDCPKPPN

Row | SMILES | pIC50
1 | CCOc1ncc([C@@H](CC(=O)O)n2ncc3cc(OCCc4ccc5c(n4)NCCC5)ccc32)cn1 [Example 108, (R)-3-(2-Ethoxypyrimidin-5-yl)-3-(5-(2-(5,6,7,8-tetrahydro-1,8-naphthyridin-2-yl)ethoxy)-1H-indazol-1-yl) propanoic acid, TFA] | 6.41
2 | O=C(O)CC(c1cnc(N2CCOCC2)nc1)n1ncc2cc(OCCc3ccc4c(n3)NCCC4)ccc21 (stereo not shown) [Example 111, 3-(2-Morpholinopyrimidin-5-yl)-3-(5-(2-(5,6,7,8-tetrahydro-1,8-naphthyridin-2-yl)ethoxy)-1H-indazol-1-yl)propanoic acid, TFA] | 7.62
3 | O=C(O)CC(c1ccc2nncn2c1)n1ncc2cc(OCCc3ccc4c(n3)NCCC4)ccc21 (stereo not shown) [Example 115, 3-([1,2,4]Triazolo[4,3-a]pyridin-6-yl)-3-(5-(2-(5,6,7,8-tetrahydro-1,8-naphthyridin-2-yl)ethoxy)-1H-indazol-1-yl)propanoic acid] | 7.22
4 | CC(C)(C)OC(=O)NCc1cncc(C(CC(=O)O)n2ncc3cc(OCCc4ccc5c(n4)NCCC5)ccc32)c1 (stereo not shown) [Example 123, 3-(5-(((tert-Butoxycarbonyl)amino)methyl)pyridin-3-yl)-3-(5-(2-(5,6,7,8-tetrahydro-1,8-naphthyridin-2-yl)ethoxy)-1H-indazol-1-yl)propanoic acid] | 8.26
5 | O=C(O)C[C@H](c1cnc2nccnc2c1)n1ncc2cc(OCCc3ccc4c(n3)NCCC4)ccc21 [Example 128, (R)-3-(Pyrido[2,3-b]pyrazin-7-yl)-3-(5-(2-(5,6,7,8-tetrahydro-1,8-naphthyridin-2-yl)ethoxy)-1H-indazol-1-yl)propanoic acid] | 7.60
6 | O=C(O)C[C@@H](c1cnc2nccnc2c1)n1ncc2cc(OCCc3ccc4c(n3)NCCC4)ccc21 [Example 129, (S)-3-(Pyrido[2,3-b]pyrazin-7-yl)-3-(5-(2-(5,6,7,8-tetrahydro-1,8-naphthyridin-2-yl)ethoxy)-1H-indazol-1-yl)propanoic acid] | 6.32
7 | O=C(O)CC(c1ccn2cnnc2c1)n1ncc2cc(OCCc3ccc4c(n3)NCCC4)ccc21 (stereo not shown) [Example 130, 3-([1,2,4]Triazolo[4,3-a]pyridin-7-yl)-3-(5-(2-(5,6,7,8-tetrahydro-1,8-naphthyridin-2-yl)ethoxy)-1H-indazol-1-yl)propanoic acid] | 7.24
8 | NCc1cncc(C(CC(=O)O)n2ncc3cc(OCCc4ccc5c(n4)NCCC5)ccc32)c1 (stereo not shown) [Example 131, 3-(5-(Aminomethyl)pyridin-3-yl)-3-(5-(2-(5,6,7,8-tetrahydro-1,8-naphthyridin-2-yl)ethoxy)-1H-indazol-1-yl)propanoic acid] | 7.52
9 | COc1ncc(C(CC(=O)O)n2ncc3cc(OCCc4ccc5c(n4)NCCC5)ccc32)cc1C1OCCO1 (stereo not shown) [Example 133, 3-(5-(1,3-Dioxolan-2-yl)-6-methoxypyridin-3-yl)-3-(5-(2-(5,6,7,8-tetrahydro-1,8-naphthyridin-2-yl)ethoxy)-1H-indazol-1-yl)propanoic acid] | 6.40
10 | Cn1cc2ncc(C(CC(=O)O)n3ncc4cc(OCCc5ccc6c(n5)NCCC6)ccc43)cc2n1 (stereo not shown) [Example 136, 3-(2-Methyl-2H-pyrazolo[4,3-b]pyridin-6-yl)-3-(5-(2-(5,6,7,8-tetrahydro-1,8-naphthyridin-2-yl)ethoxy)-1H-indazol-1-yl)propanoic acid] | 7.39

Continued by rising pIC50, values first:

Row | pIC50 | SMILES
11 | 7.66 | O=C(O)CC(c1cnc2c(c1)OCO2)n1ncc2cc(OCCc3ccc4c(n3)NCCC4)ccc21 (stereo not shown) [Example 132, 3-([1,3]Dioxolo[4,5-b]pyridin-6-yl)-3-(5-(2-(5,6,7,8-tetrahydro-1,8-naphthyridin-2-yl)ethoxy)-1H-indazol-1-yl)propanoic acid]
12 | 7.68 | Cn1cnc2cc(C(CC(=O)O)n3ncc4cc(OCCc5ccc6c(n5)NCCC6)ccc43)cnc21 (stereo not shown) [Example 126, 3-(3-Methyl-3H-imidazo[4,5-b]pyridin-6-yl)-3-(5-(2-(5,6,7,8-tetrahydro-1,8-naphthyridin-2-yl)ethoxy)-1H-indazol-1-yl)propanoic acid, 2 TFA]
13 | 7.72 | O=C(O)CC(c1ccc2ncsc2c1)n1ncc2cc(OCCc3ccc4c(n3)NCCC4)ccc21 (stereo not shown) [Example 110, 3-(Benzo[d]thiazol-6-yl)-3-(5-(2-(5,6,7,8-tetrahydro-1,8-naphthyridin-2-yl)ethoxy)-1H-indazol-1-yl)propanoic acid, TFA]
14 | 7.77 | O=C(O)CC(c1cccc(-n2cccn2)n1)n1ncc2cc(OCCc3ccc4c(n3)NCCC4)ccc21 (stereo not shown) [Example 134, 3-(6-(1H-Pyrazol-1-yl)pyridin-2-yl)-3-(5-(2-(5,6,7,8-tetrahydro-1,8-naphthyridin-2-yl)ethoxy)-1H-indazol-1-yl)propanoic acid]
15 | 7.85 | CCN1CCn2c(C(CC(=O)O)n3ncc4cc(OCCc5ccc6c(n5)NCCC6)ccc43)cnc2C1 (stereo not shown) [Example 122, 3-(7-Ethyl-5,6,7,8-tetrahydroimidazo[1,2-a]pyrazin-3-yl)-3-(5-(2-(5,6,7,8-tetrahydro-1,8-naphthyridin-2-yl)ethoxy)-1H-indazol-1-yl)propanoic acid]
16 | 8.15 | Cn1ncc2ncc(C(CC(=O)O)n3ncc4cc(OCCc5ccc6c(n5)NCCC6)ccc43)cc21 (stereo not shown) [Example 137, 3-(1-Methyl-1H-pyrazolo[4,3-b]pyridin-6-yl)-3-(5-(2-(5,6,7,8-tetrahydro-1,8-naphthyridin-2-yl)ethoxy)-1H-indazol-1-yl)propanoic acid]
17 | 8.21 | O=C(O)CC(c1cncc(N2CCCC2)c1)n1ncc2cc(OCCc3ccc4c(n3)NCCC4)ccc21 (stereo not shown) [Example 127, 3-(5-(Pyrrolidin-1-yl)pyridin-3-yl)-3-(5-(2-(5,6,7,8-tetrahydro-1,8-naphthyridin-2-yl)ethoxy)-1H-indazol-1-yl)propanoic acid, 3 TFA]
18 | 8.23 | O=C(O)CC(c1ccc2c(n1)NCCC2)n1ncc2cc(OCCc3ccc4c(n3)NCCC4)ccc21 (stereo not shown) [Example 116, 3-(5,6,7,8-Tetrahydro-1,8-naphthyridin-2-yl)-3-(5-(2-(5,6,7,8-tetrahydro-1,8-naphthyridin-2-yl)ethoxy)-1H-indazol-1-yl)propanoic acid, 2 TFA]
19 | 8.33 | CS(=O)(=O)c1cncc(C(CC(=O)O)n2ncc3cc(OCCc4ccc5c(n4)NCCC5)ccc32)c1 (stereo not shown) [Example 125, 3-(5-(Methylsulfonyl)pyridin-3-yl)-3-(5-(2-(5,6,7,8-tetrahydro-1,8-naphthyridin-2-yl)ethoxy)-1H-indazol-1-yl)propanoic acid, 2 TFA]
20 | 8.42 | O=C(O)CC(c1cnn(-c2ccncc2)c1)n1ncc2cc(OCCc3ccc4c(n3)NCCC4)ccc21 (stereo not shown) [Example 135, 3-(1-(Pyridin-4-yl)-1H-pyrazol-4-yl)-3-(5-(2-(5,6,7,8-tetrahydro-1,8-naphthyridin-2-yl)ethoxy)-1H-indazol-1-yl)propanoic acid]
21 | 8.59 | COc1ccc(C(CC(=O)O)n2ncc3cc(OCCc4ccc5c(n4)NCCC5)ccc32)nn1 (stereo not shown) [Example 114, 3-(6-Methoxypyridazin-3-yl)-3-(5-(2-(5,6,7,8-tetrahydro-1,8-naphthyridin-2-yl)ethoxy)-1H-indazol-1-yl)propanoic acid, TFA]
22 | 8.72 | O=C(O)CC(c1cncc(N2CCOCC2)c1)n1ncc2cc(OCCc3ccc4c(n3)NCCC4)ccc21 (stereo not shown) [Example 124, 3-(5-Morpholinopyridin-3-yl)-3-(5-(2-(5,6,7,8-tetrahydro-1,8-naphthyridin-2-yl)ethoxy)-1H-indazol-1-yl)propanoic acid, 3 TFA]
